Test results from PubChem BioAssay (NCI).
Several values for one entry are separate records, joined by “and”; a condition that tells them apart may be missing. Identical values can stand only once.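 Values below derive from 48-hour exposures of cells grown in 96-well plates, with endpoints linearly interpolated between the two concentrations bracketing the appropriate inhibition level. At the GI50, growth is halved. Definition used: TGI = concentration required for complete inhibition of growth.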

Columns and labels:
Assay in all cases: NCI anticancer screen, dose series, 48 h
COLO 205 colon = test system: COLO 205 colon
HCT-116 colon = test system: HCT-116 colon
HL-60(TB) leukemia = test system: HL-60(TB) leukemia
LOX IMVI melanoma = test system: LOX IMVI melanoma
NCI-H460 lung = test system: NCI-H460 lung
OVCAR-4 ovarian = test system: OVCAR-4 ovarian
OVCAR-5 ovarian = test system: OVCAR-5 ovarian
PC-3 prostate = test system: PC-3 prostate
SK-MEL-5 melanoma = test system: SK-MEL-5 melanoma
SNB-75 CNS = test system: SNB-75 CNS

Row | SMILES | GI50 (COLO 205 colon) [µM] | TGI (COLO 205 colon) | GI50 (HCT-116 colon) | TGI (HCT-116 colon) [µM] | GI50 (HL-60(TB) leukemia) | TGI (HL-60(TB) leukemia) [µM] | GI50 (LOX IMVI melanoma) | TGI (LOX IMVI melanoma) | GI50 (NCI-H460 lung) [µM] | TGI (NCI-H460 lung) | GI50 (OVCAR-4 ovarian) [µM] | TGI (OVCAR-4 ovarian) | GI50 (OVCAR-5 ovarian) [µM] | TGI (OVCAR-5 ovarian) | GI50 (PC-3 prostate) | TGI (PC-3 prostate) | GI50 (SK-MEL-5 melanoma) [µM] | TGI (SK-MEL-5 melanoma) | GI50 (SNB-75 CNS) [µM] | TGI (SNB-75 CNS)
1 | C=C(C)[C@@H]1CC[C@]2(C(N)=O)CC[C@]3(C)[C@H](CC[C@@H]4[C@@]5(C)C/C(=C/c6cccnc6)[C@H](O)C(C)(C)[C@@H]5CC[C@]43C)[C@@H]12 | 3.1 | 12.4 µM | 2.22 µM | > 100 | 2.69 µM | 11.2 | 4.38 µM | 37.1 µM | 4.22 | > 100 µM | 3.31 | > 100 µM | 3.61 | > 100 µM | 2.94 µM | > 100 µM | 3.23 | 12.4 µM | 4.29 | > 100 µM
2 | Cc1ccc2c(c1)C=CC(C#N)N2C(=O)Oc1ccccc1 (centres undefined) | – | 70.1 µM | – | > 100 | – | 50.5 | – | 40 µM | – | > 100 µM | – | 70.7 µM | – | > 100 µM | – | 97.9 µM | – | > 100 µM | – | > 100 µM
3 | CCCCCC/C=C1\CCC(CN(C)C)C1=O (centres undefined) | – | 8.4 µM | – | 9.55 | – | 4.8 | – | 3.79 µM | – | 35.1 µM | – | 45.3 µM | – | 30.8 µM | – | 24 µM | – | 27.5 µM | – | 23.8 µM
4 | Cc1c(-c2nnc(-c3cc(Cl)c(Cl)cc3Cl)o2)nnn1-c1ccnc2c(C(F)(F)F)cccc12 | 17.4 | 33.2 µM | 17.9 µM | 34.8 | 40.9 µM | > 100 | 19.7 µM | 38.7 µM | 21.7 | 42.9 µM | 23.9 | 65.8 µM | 32.1 | 94.2 µM | 15.9 µM | 37.4 µM | 17.3 | 32.5 µM | 18.7 | 43.5 µM
5 | O=S(=O)(Nc1ccccn1)c1ccc(N=Nc2ccc(O)c3ncccc23)cc1 | 7.62 | 26.2 µM | 0.888 µM | 22.6 | 0.77 µM | 2.61 | 0.735 µM | 16 µM | 0.891 | 4.59 µM | 2.33 | 12.2 µM | 3.53 | 18.7 µM | 1.29 µM | > 100 µM | 0.683 | 1.63 µM | 0.675 | 3.33 µM
6 | Fc1cccc(-c2[nH]nc3nc(Nc4cccnc4)sc23)c1 | 3.3 | > 100 µM | 0.595 µM | 51.1 | 1.24 µM | > 100 | 3.68 µM | > 100 µM | 2.38 | > 100 µM | 16.1 | > 100 µM | > 100 | > 100 µM | 6.34 µM | > 100 µM | 0.593 | 23.9 µM | > 100 | > 100 µM
7 | COc1cc(N2CCC(N3CCN(C)CC3)CC2)ccc1Nc1ncc(Cl)c(Nc2ccccc2S(=O)(=O)C(C)C)n1 | 0.114 | 0.469 µM | 0.358 µM | 1.64 | 0.327 µM | 1.4 | 0.332 µM | 1.47 µM | 0.604 | 5.11 µM | 0.341 | 2.17 µM | 0.659 | 5.48 µM | 2.16 µM | 11.7 µM | 1.37 | 2.67 µM | 0.919 | 2.17 µM
8 | CCN(CC)CC[n+]1cc2cc(OC)c(OC)cc2c2ccc3cc4c(cc3c21)OCO4 | 0.418 | 2.48 µM | 0.404 µM | 1.66 | 1.42 µM | 4.69 | 0.355 µM | 0.996 µM | 0.288 | 1.04 µM | 0.775 | 4.16 µM | 1.01 | 3.17 µM | 0.395 µM | 2.25 µM | 1.31 | 2.61 µM | 0.64 | 2.56 µM
9 | CC(C)(C)c1cc(-c2nc3c(F)c(F)c(F)c(F)c3[nH]2)cc(C(C)(C)C)c1O | > 100 | > 100 µM | > 100 µM | > 100 | > 100 µM | > 100 | > 100 µM | > 100 µM | > 100 | > 100 µM | > 100 | > 100 µM | > 100 | > 100 µM | > 100 µM | > 100 µM | > 100 | > 100 µM | > 100 | > 100 µM
10 | Nc1nc(-c2cccs2)cs1 | – | > 100 µM | – | > 100 | – | > 100 | – | > 100 µM | – | > 100 µM | – | > 100 µM | – | > 100 µM | – | > 100 µM | – | > 100 µM | – | > 100 µM
11 | CCCCCCNCCCNc1c2ccccc2nc2cccc([N+](=O)[O-])c12 | – | 0.0149 µM and 0.0415 µM | – | 1.36 | 0.0216 µM | – | 0.044 µM | 0.0818 µM and 0.295 µM | – | 0.0218 µM | 0.0115 | 0.0419 µM and 0.0486 µM | 0.0207 | 0.194 µM and 0.151 µM | – | 0.0878 µM and 0.393 µM | – | 0.0258 µM and 0.0243 µM | 0.065 | 0.181 µM and 0.237 µM
12 | COc1ccc(C2c3c(-c4ccccc4)nn(-c4ccccc4)c3Oc3ncn4nc(CC#N)nc4c32)cc1OC (centres undefined) | > 100 | > 100 µM | 40.7 µM and 9.55 µM | > 100 | 30.4 µM and > 100 µM | > 100 | 15.7 µM and 3.63 µM | 35.8 µM and 26.3 µM | – | > 100 µM and 46.7 µM | – | 65.9 µM and 7.38 µM | – | > 100 µM and 13.8 µM | 32.6 µM and 12.3 µM | > 100 µM and 49.1 µM | – | > 100 µM | – | > 100 µM and 12.2 µM
13 | C=CCSSc1ncnc2c1ncn2C1OC(CO)C(O)C1O (centres undefined) | 2.74 | 13.1 µM | 2.96 µM | > 45.4 | 3.27 µM | 19.9 | 0.37 µM | > 78.6 µM | 4.49 | > 100 µM | 0.782 | > 100 µM | 4.29 | > 100 µM | 2.28 µM | > 22.4 µM | 3.43 | > 50.7 µM | 0.731 | 96.9 µM
